The text below walks through data of patent publication US8580821B2, “Serotonin transporter (SERT) inhibitors for the treatment of depression and anxiety” (Hoffmann-La Roche Inc., priority 2006, dated 2013).

Where a name gives a salt, the structure may show the parent alone. Read-outs that look alike come from different tables or passages of the source.

Assay [1] deals with T1, human NK-1 receptor (Homo sapiens, UniProt P25103).
T1 construct: expressed in transfected cells; host or cells: CHO cells, Semliki virus expression system; membrane suspension
T1 sequence (P25103 whole entry): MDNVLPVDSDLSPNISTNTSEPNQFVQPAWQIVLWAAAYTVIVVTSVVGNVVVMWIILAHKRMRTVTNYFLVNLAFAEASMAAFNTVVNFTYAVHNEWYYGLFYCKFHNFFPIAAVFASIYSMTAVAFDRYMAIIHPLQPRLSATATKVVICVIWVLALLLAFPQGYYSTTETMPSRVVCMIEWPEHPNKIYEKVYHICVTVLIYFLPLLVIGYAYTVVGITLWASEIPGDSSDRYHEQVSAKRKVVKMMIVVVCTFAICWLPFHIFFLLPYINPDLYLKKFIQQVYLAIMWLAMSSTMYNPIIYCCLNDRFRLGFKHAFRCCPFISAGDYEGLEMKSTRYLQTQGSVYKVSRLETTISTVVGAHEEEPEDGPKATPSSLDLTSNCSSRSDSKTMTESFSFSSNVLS
Description: hNK-1 binding assay ([3H]substance P displacement, transfected CHO cells). As for the experimental part: The affinity of test compounds for the NK-1 receptor was evaluated at human NK-1 receptors in CHO cells transfected with the human NK-1 receptor using the Semliki virus expression system and radiolabelled with [^3H]substance P (final concentration 0.6 nM). Binding assays were performed in HEPES buffer (50 mM, pH 7.4) containing BSA (0.04%) leupeptin (8 μg/ml), MnCl2 (3 mM) and phosphoramidon (2 μM). Binding assays consisted of 250 μl of membrane suspension (1.25×10^5 cells/assay tube), 125 μl of buffer of displacing agent and 125 μl of [^3H]substance P. Displacement curves were determined with at least ten concentrations of the compound. The assay tubes were incubated for 60 min at room temperature after which time the tube contents were rapidly filtered under vacuum through GF/C filters presoaked for 60 min with PEI (0.3%) with 2×2 ml washes of HEPES buffer (50 mM, pH 7.4). The radioactivity retained on the filters was measured by scintillation counting. All assays were performed in duplicate in at least 2 separate experiments.
The inhibition dissociation constant (Ki) of each compound for NK1 is determined as described above for hSERT.

For assay [2], the target named is T2, recombinant human SERT (Homo sapiens, UniProt P31645).
T2 construct: expressed in transfected cells
T2 sequence (P31645 whole entry): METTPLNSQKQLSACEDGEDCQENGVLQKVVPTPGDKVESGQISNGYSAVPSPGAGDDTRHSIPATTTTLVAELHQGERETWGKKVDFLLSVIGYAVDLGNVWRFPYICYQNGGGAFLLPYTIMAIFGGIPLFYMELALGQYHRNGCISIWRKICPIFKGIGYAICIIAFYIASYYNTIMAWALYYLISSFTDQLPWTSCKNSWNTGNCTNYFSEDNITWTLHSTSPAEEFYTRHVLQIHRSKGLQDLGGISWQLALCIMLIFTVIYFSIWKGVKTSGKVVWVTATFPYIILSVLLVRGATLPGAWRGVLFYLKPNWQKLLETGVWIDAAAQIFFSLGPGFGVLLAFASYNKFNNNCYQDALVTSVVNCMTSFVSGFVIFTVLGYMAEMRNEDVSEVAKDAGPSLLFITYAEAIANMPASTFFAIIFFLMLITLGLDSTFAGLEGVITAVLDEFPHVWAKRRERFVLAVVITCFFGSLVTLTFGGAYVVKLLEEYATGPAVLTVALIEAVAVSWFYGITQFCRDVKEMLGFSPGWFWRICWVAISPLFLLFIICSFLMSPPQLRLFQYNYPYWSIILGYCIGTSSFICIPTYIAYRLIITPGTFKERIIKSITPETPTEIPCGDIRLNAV
Description: hSERT SPA binding assay ([3H]citalopram displacement, HEK-293 membranes). The method, then:
HEK-293 cells stably expressing recombinant human SERT are maintained with DMEM high glucose with 10% FBS, 300 μg/ml G418 and 2 mM L-Glutamine and incubated at 37° C. with 5% CO2. Cells are released from culture flasks using PBS for 1-2 min. The cells are subsequently centrifuged at 1000 g's for 5 min and resuspended in PBS prior to being used in the membrane preparation.
Cells are homogenized using a Polytron in 50 mM Tris (pH 7.4). Centrifuged at 48,000×g for 15 min, and the pellet resuspended in fresh buffer. After a second centrifugation, the pellet is re-homogenized and resuspended in fresh buffer. Typically, membrane portions are aliquoted in 3 mg/ml (w:v). and stored at 80° C.
A serial dilution of test compounds in 50 mM Tris-HCl, 120 mM NaCl, KCl 5 mM (pH 7.4) is made in a white Optiplate (Packard) (100 μl/well) and the radioligand ^3[H] Citalopram (Specific activity: 60-86 Ci/mmol, Final concentration: 1 nM) is added at 50 μl/well. Membrane and beads are prepared to a ratio of 5 μg:0.6 mg, with 0.6 mg PVT-WGA Amersham beads (Cat# RPQ0282V) added per well. 50 μl of the membrane/bead mixture is added to the assay plate for a final volume of 200 μl. The mixtures are allowed to stand at room temperature for one hour, and are then counted on a Packard TopCount.
The inhibition dissociation constant (Ki) of each compound is determined according to the method of Cheng-Prusoff.

Where [3] appears, read: [3H]substance P 0.6 nM, CHO cells transfected with human NK-1 receptor, read-out: pKi hNK1 (converted).
Where [4] appears, read: read-out: pKi hSERT (converted).

For `CC(=O)N(Cc1cc(C(F)(F)F)cc(C(F)(F)F)c1)C[C@@H]1CNCC[C@H]1c1ccc(F)cc1` [Example 3 of III, reference compound], the Ki in assay [1] (setting [3]) was 13.8 nM; in assay [2] (setting [4]), 10000 nM. The matching figures for `CN(Cc1cc(C(F)(F)F)cc(C(F)(F)F)c1)C[C@@H]1CNCC[C@H]1c1ccc(F)cc1` [Example 2 of III, reference compound]: 20.4 nM and 708 nM. For the compound `CS(=O)(=O)N(Cc1cc(C(F)(F)F)cc(C(F)(F)F)c1)C[C@@H]1CNCC[C@H]1c1ccc(F)cc1` [Example 4 of III, reference compound], the Ki in assay [1] (setting [3]) was 30.2 nM; in assay [2] (setting [4]) it was 10000 nM. On to `Cc1ccccc1C1=C(COCc2cc(C(F)(F)F)cc(C(F)(F)F)c2)CNCC1` [Example 7 of I, 5-(3,5-Bis-trifluoromethyl-benzyloxymethyl)-4-o-tolyl-1,2,3,6-tetrahydro-pyridine hydrochloride], for which the Ki in assay [1] is 3.16 nM; in assay [2] (setting [4]), 32.4 nM. Turning to `N#CCN1CC[C@@H](c2ccc(F)cc2)[C@H](COCc2cc(C(F)(F)F)cc(C(F)(F)F)c2)C1` [Example 3 of I, (−)-[(3S,4R)-3-(3,5-Bis-trifluoromethyl-benzyloxymethyl)-4-(4-fluoro-phenyl)-piperidin-1-yl]-acetonitrile], the Ki was 21.4 nM in assay [1] (setting [3]) and 141 nM in assay [2] (setting [4]).

For the compound `Cc1ccccc1[C@@H]1CCNC[C@H]1COCc1cc(C(F)(F)F)cc(C(F)(F)F)c1` (relative stereo) [Example 6 of I, (−)-(trans)-3-(3,5-Bis-trifluoromethyl-benzyloxymethyl)-4-o-tolyl-piperidine hydrochloride], the figures for the Ki in assay [1] (setting [3]) and in assay [2] (setting [4]) were 24 nM and 32.4 nM, respectively.

`CN1CC[C@@H](c2ccc(F)cc2)[C@H](COCc2cc(C(F)(F)F)cc(C(F)(F)F)c2)C1` [Example 2 of I]: the values for the Ki in assay [1] (setting [3]) and in assay [2] (setting [4]) were 8.13 nM and 107 nM, respectively. In the case of `[O-][S+](Cc1cc(C(F)(F)F)cc(C(F)(F)F)c1)C[C@@H]1CNCC[C@H]1c1ccc(F)cc1` (stereo partly shown) [Example 2 of II, reference compound], the Ki in assay [1] (setting [3]) was 63.1 nM; in assay [2] (setting [4]) it was 3020 nM. Turning to `Fc1ccc([C@@H]2CCNC[C@H]2COCc2cc(C(F)(F)F)cc(C(F)(F)F)c2)cc1` [Example 1 of I, (−)-(3S,4R)-3-(3,5-Bis-trifluoromethyl-benzyloxymethyl)-4-(4-fluoro-phenyl)-piperidine hydrochloride], the values for the Ki in assay [1] and in assay [2] (setting [4]) were 12.6 nM and 6.17 nM, respectively. On to `Fc1ccc([C@@H]2CCNC[C@H]2COCc2cccc(C(F)(F)F)c2)cc1` [Example 4 of I, (−)-(3S,4R)-4-(4-Fluoro-phenyl)-3-(3-trifluoromethyl-benzyloxymethyl)-piperidine hydrochloride], for which the Ki is 148 nM in assay [1] (setting [3]) and 17 nM in assay [2]. Consider `Fc1ccc([C@@H]2CCNCC2CNCc2cc(C(F)(F)F)cc(C(F)(F)F)c2)cc1` (stereo partly shown) [Example 1 of III, reference compound], for which the Ki was 12.6 nM in assay [1] (setting [3]) and 724 nM in assay [2] (setting [4]). The matching figures for `FC(F)(F)c1cc(COC[C@@H]2CNCC[C@H]2c2ccccc2)cc(C(F)(F)F)c1` (racemic) [Example 5 of I, (3SR,4RS)-3-(3,5-Bis-trifluoromethyl-benzyloxymethyl)-4-phenyl-piperidine hydrochloride]: 8.91 nM and 11 nM.

Consider `O=S(=O)(Cc1cc(C(F)(F)F)cc(C(F)(F)F)c1)C[C@@H]1CNCC[C@H]1c1ccc(F)cc1` [Example 3 of II, reference compound], for which the Ki in assay [1] (setting [3]) was 13.5 nM.
